From US7402597B2, “Activator of peroxisome proliferator-activated receptor δ” (Nippon Chemiphar Co., Ltd, priority 2001, dated 2008)
Like-named read-outs stand apart in the source and are kept apart here.

Experiments:
PPARγ = target: T1, PPARγ (Homo sapiens, UniProt P37231); experiment: PPARγ transactivation activity (GAL4-hPPARγ LBD luciferase reporter in CV-1 cells); format: cell-based; conditions: for Relative PPARγ transactivation activity (γ): test compound 10^-6 M, 40 hours, CV-1 cells, 100% = 10^-5 M Rosiglitazone, 0% = DMSO (0.1%)
T1 construct: Receptor expression plasmid (GAL4-hPPARα, LBD GAL4-hPPARγ LBD, GAL4-hPPARδ LBD); expressed in transfected cells; host or cells: CV-1 cells
T1 sequence (P37231 238-503 limits assumed): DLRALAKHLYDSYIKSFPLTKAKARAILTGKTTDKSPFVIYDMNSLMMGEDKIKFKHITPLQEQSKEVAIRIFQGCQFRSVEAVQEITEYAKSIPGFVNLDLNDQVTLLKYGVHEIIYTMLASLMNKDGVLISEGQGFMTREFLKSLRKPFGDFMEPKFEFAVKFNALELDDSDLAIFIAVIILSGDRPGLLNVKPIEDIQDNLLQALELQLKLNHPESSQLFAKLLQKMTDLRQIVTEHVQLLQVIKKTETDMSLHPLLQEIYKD
Method: (§1) (1) Measurement of PPARα, γ, δ transactivation activity
(§2) CV-1 cells were obtained from Tohoku University Aging Medical Laboratory, Medical Cell Collection Center. All test compounds were dissolved in dimethylsulfoxide (DMSO). Final concentration of DMSO was 0.1%.
(§3) CV-1 cells were seeded in 24 well culture plates at 2×10^5 cells per well, and cultured for 24 hours OPTI-MEM I Reduced Serum Medium (Life Technologies, 500 μL/well) containing 4%-fetal bovine serum (FBS). After washing with OPTI-MEM, transfection mixture (250 μL/well) containing 0.03 μg of GAL4-hPPARδ LBD, 0.25 μg of UASx4-TK-LUC, 0.35 μg of βGAL, and 2 μL of lipofection reagent, DMRIE-C (Life Technologies) were added. The cells were incubated for 5 hours at 37° C. […]
(§4) The culture medium was removed and the cells were washed with PBS twice. A solubilizing buffer (100 μL/well) containing 25 mM Tris-PO4 (pH 7.8), 15%v/v glycerol, 2% CHAPS, 1% Lecithin, 1% BSA, 4 mM EGTA (pH 8.0), 8 mM MgCl2, 1 mM DTT was added. After the incubation for 10 minutes at room temperature, a portion (20 μL) of the solution was transferred into a 96-well plate. Subsequently, 100 μL of luciferase substrate solution (Piccagene: available from Nippon Gene Co., Ltd.) was added, and a luminous intensity per one second (luciferase activity) was measured using a microluminoreader (Type MLR-100, Corona Electrics Co., Ltd.). Each luciferase activity was corrected by the transfection efficiency which was calculated from β-galactosidase activity. The assay method of β-galactosidase activity was as follows: A portion (50 μL) of the solubilized sample was transferred into another 96-well plate; 100 μL of ONPG (2-nitrophenyl-β-galactopyranoside) solution was added and incubated for 5 minutes at room temperature. 50 μL of a reaction stopping solution (1M sodium carbonate solution) was added. Then the absorbance at 414 nm was measured.

PPARα = target: T2, PPARα (Homo sapiens, UniProt Q07869); experiment: PPARα transactivation activity (GAL4-hPPARα LBD luciferase reporter in CV-1 cells); format: cell-based; conditions: for Relative activity for PPAR transactivation, α: compounds at 10^-7 M; for Relative PPARα transactivation activity (α): test compound 10^-6 M, 40 hours, CV-1 cells, 100% = 10^-4 M, 0% = DMSO (0.1%)
T2 construct: Receptor expression plasmid (GAL4-hPPARα, LBD GAL4-hPPARγ LBD, GAL4-hPPARδ LBD); expressed in transfected cells; host or cells: CV-1 cells
T2 sequence (Q07869 239-466 limits assumed): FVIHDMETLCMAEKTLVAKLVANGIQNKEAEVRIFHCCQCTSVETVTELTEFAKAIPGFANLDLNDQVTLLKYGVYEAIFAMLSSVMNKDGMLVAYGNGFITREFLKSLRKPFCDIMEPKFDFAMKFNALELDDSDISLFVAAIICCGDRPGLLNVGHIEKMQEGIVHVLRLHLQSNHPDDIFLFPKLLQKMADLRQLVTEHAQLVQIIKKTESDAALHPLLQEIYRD
Method: as §1
PPARα, γ, δ transactivation activity of each compound [Examples 1-4] was measured in the manner described below.
as §2
Receptor expression plasmid (GAL4-hPPARα, LBD GAL4-hPPARγ LBD, GAL4-hPPARδ LBD), Reporter plasmid (UASx4-TK-LUC), and β-galactosidase expression plasmid (βGAL) similar to Kliewer, S. A., et al., ((1992) Nature, 358:771-774) were used.
CV-1 cells were seeded in 24 well culture plates at 2×10^5 cells per well, and cultured for 24 hours OPTI-MEM I Reduced Serum Medium (Life Technologies, 500 μL/well) containing 4%-fetal bovine serum (FBS). After washing with OPTI-MEM, transfection mixture (250 μL/well) containing 0.03 μg of GAL4-hPPARδ LBD, 0.25 μg of UASx4-TK-LUC, 0.35 μg of βGAL, and 2 μL of lipofection reagent, DMRIE-C (Life Technologies) were added. The cells were incubated for 5 hours at 37° C.
The cells were washed and incubated for 40 hours in the presence of the test compound (final concentration was 10^−6M).
as §4
A relative PPAR activity was calculated as follows: 0% (luciferase activity of cells treated with DMSO (0.1%) alone), 100% (luciferase activity of cells treated with a control (PPARα: 10^−4 M […], PPARγ: 10^−5 M Rosiglitazone, PPARδ: 10^−4 M L-165041)).
PPAR transactivation activities of the compounds of Examples 5-10 were assayed in the same manner as described in Example 11.
Relative activities for PPAR transactivation were shown.
Each value represents as % of control. Cells were cultured in the presence of compounds at 10^−7 M except that PPARδ of Examples 5, 6 and 7 were assayed at 10^−8 M.

PPARδ = target: T3, PPARδ (Homo sapiens, UniProt Q03181); experiment: PPARδ transactivation activity (GAL4-hPPARδ LBD luciferase reporter in CV-1 cells); format: cell-based; conditions: for PPARδ transactivation activity (statement in words on Table 25) / Relative PPARδ transactivation activity (δ): CV-1 cells, test compound 10^-6 M; for PPARδ transactivation activity (statement in words on Table 25): control 10^-4 M L-165041 = 100%; for Relative PPARδ transactivation activity (δ): 40 hours, 100% = 10^-4 M L-165041, 0% = DMSO (0.1%)
T3 construct: transfection mixture (250 μL/well) containing 0.03 μg of GAL4-hPPARδ LBD; expressed in transfected cells; host or cells: CV-1 cells
T3 sequence (Q03181 211-439 limits assumed): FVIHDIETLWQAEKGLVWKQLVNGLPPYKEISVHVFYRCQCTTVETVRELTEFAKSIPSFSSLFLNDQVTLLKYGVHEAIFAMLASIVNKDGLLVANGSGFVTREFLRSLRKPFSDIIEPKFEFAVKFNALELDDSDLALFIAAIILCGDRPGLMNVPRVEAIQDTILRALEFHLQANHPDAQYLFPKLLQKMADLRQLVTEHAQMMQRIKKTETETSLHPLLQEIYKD
Method: PPARδ transactivation activity of the compound of the invention was measured in the manner described below.
A receptor expression plasmid (GAL4-hPPARδ LBD), a reporter plasmid (UASx4-TK-LUC) and a β-galactosidase (β-GAL) expression plasmid were transfected into CV-1 cells by using DMRIE-C reagent. Subsequently, the cells were incubated for 40 hours in the presence of a compound of the invention, and then the luciferase and β-GAL activities of the cell lysate were assayed.
as §1, §2, §3, §4

db/db mice = system: db/db mice
Method: HDL cholesterol elevating effect was measured by using db/db mice, which are hereditary obesity mice. The db/db mice (10 weeks old) were divided into groups based on serum HDL cholesterol levels. […] Mice of the control group (to which no agent was administered) were orally given 1% methyl cellulose solution. After 16 hours from the final administration, blood sample was collected, and serum HDL cholesterol level was measured. HDL cholesterol was separated by electrophoresis on agarose gels (Chol/Trig Combo, Helena Laboratories). Serum total cholesterol levels were measured enzymaticallly using a kit (Pure Auto, Daiichi Chemicals) by an automatic analyzer (7060E type, Hitachi Ltd.). HDL cholesterol levels were calculated from total cholesterol levels and HDL cholesterol/total cholesterol ratios.
Each value represents as % of the control group.

[1] = compounds at 10^-8 M (Examples 5, 6 and 7)

Compound | Relative activity for PPAR transactivation, γ (PPARγ; compounds at 10^-7 M) | Relative activity for PPAR transactivation, α (PPARα) | Relative activity for PPAR transactivation, δ (PPARδ; compounds at 10^-7 M) | Relative PPARγ transactivation activity (γ) (PPARγ) [%] | Relative PPARα transactivation activity (α) (PPARα) [%] | Relative PPARδ transactivation activity (δ) (PPARδ) [%] | Relative activity for PPAR transactivation, δ (PPARδ; [1]) | also measured
Cc1cc2c(CCc3sc(-c4ccc(C(F)(F)F)cc4)nc3C(C)C)noc2cc1OC(C)(C)C(=O)OCCN1CCCCC1.Cl [Example 10, 2-[[3-[2-[4-Isopropyl-2-(4-trifluoromethyl)phenyl-5-thiazolyl]ethyl]-5-methyl-1,2-benzisoxazol-6-yl]oxy]-2-methylpropionic acid 2-piperidin-1-yl ethyl ester hydrochloride] | 0 % of control | 3 % of control | 75 % of control |  |  |  |  | 
C=CCc1c(OC(C)(C)C(=O)O)ccc2c(CCc3nc(-c4ccc(Cl)cc4Cl)oc3C(C)C)noc12 [Example 2, 2-[[7-Allyl-3-[2-[2-(2,4-dichlorophenyl)-5-isopropyl-4-oxazolyl]ethyl]-1,2-benzisoxazol-6-yl]oxy]-2-methylpropionic acid] |  |  |  | 3.2 | 8.0 | 67.8 |  | PPARδ transactivation activity (statement in words on Table 25) (PPARδ): selective PPARδ transactivation activity
Cc1cc2c(CCc3nc(-c4ccc(Cl)cc4Cl)oc3C(C)C)noc2cc1OCC(=O)O [Example 9, (3-[2-[2-(2,4-Dichlorophenyl)-5-isopropyl-4-oxazolyl]ethyl]-5-methyl-1,2-benzisoxazol-6-yl]oxyacetic acid] | 2 % of control | 0 % of control | 86 % of control |  |  |  |  | 
C=CCc1c(OCC(=O)O)ccc2c(CCc3nc(-c4ccc(Cl)cc4Cl)oc3C(C)C)noc12 [Example 1, [[7-Allyl-3-[2-[2-(2,4-dichlorophenyl)-5-isopropyl-4-oxazolyl]ethyl]-1,2-benzisoxazol-6-yl]oxy]acetic acid] |  |  |  | 9.4 | 0.1 | 76.9 |  | PPARδ transactivation activity (statement in words on Table 25) (PPARδ): selective PPARδ transactivation activity
Cc1cc2c(CCc3sc(-c4ccc(C(F)(F)F)cc4)nc3C(C)C)noc2cc1NCC(=O)O [Example 8, [3-[2-[4-Isopropyl-2-(4-trifluoromethyl)phenyl-5-thiazolyl]ethyl]-5-methyl-1,2-benzisoxazol-6-yl]aminoacetic acid] | 0 % of control | 0 % of control | 61 % of control |  |  |  |  | 
Cc1cc2c(CCc3sc(-c4ccc(C(F)(F)F)cc4)nc3C(C)C)noc2cc1SCC(=O)O [Example 7, [3-[2-[4-Isopropyl-2-(4-trifluoromethyl)phenyl-5-thiazolyl]ethyl]-5-methyl-1,2-benzisoxazol-6-yl]thioacetic acid] | 0 % of control | 0 % of control |  |  |  |  | 63 % of control | 
Cc1cc2c(CCc3sc(-c4ccc(C(F)(F)F)cc4)nc3C(C)C)noc2cc1OCC(=O)O [Example 5, [3-[2-[4-Isopropyl-2-(4-trifluoromethyl)phenyl-5-thiazolyl]-ethyl]-5-methyl-1,2-benzisoxazol-6-yl]oxyacetic acid] | 0 % of control | 0 % of control |  |  |  |  | 75 % of control | 
Cc1cc2c(CCc3sc(-c4ccc(C(F)(F)F)cc4)nc3C(C)C)noc2cc1OC(C)(C)C(=O)O [Example 6, 2-[[3-[2-[4-Isopropyl-2-(4-trifluoromethyl)phenyl-5-thiazolyl]ethyl]-5-methyl-1,2-benzisoxazol-6-yl]oxy]-2-methylpropionic acid] |  | 0 % of control |  |  |  |  | 54 % of control | Relative activity for PPAR transactivation, γ (PPARγ): 0 % of control; Ratio of increasing HDL cholesterol (db/db mice; 10 mg/kg b.i.d. orally for one week, serum 16 hours after final administration): 164 % to control; HDL cholesterol elevating effect (statement in words on Table 27) (db/db mice; oral, twice daily for one week, serum HDL cholesterol 16 hours after final administration): potent HDL cholesterol elevating effect
C=CCc1c(OC(C)(C)C(=O)O)ccc2c(CCc3sc(-c4ccc(C(F)(F)F)cc4)nc3C(C)C)noc12 [Example 4, 2-[[7-Allyl-3-[2-[2-[(4-trifluoromethyl)phenyl]-4-isopropyl-5-thiazolyl]ethyl]-1,2-benzisoxazol-6-yl]oxy]-2-methylpropionic acid] |  |  |  | 9.5 | 85.0 | 59.9 |  | 
